Calls of active or inactive are those of the source.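 How the source made its calls: active means half-maximal concentration for changing protein binding to DNA, from the fitted dose curve, below 10 micromolar; inactive means the rest.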
The compounds below were run against Nuclear receptor subfamily 1 group D member 1 (Homo sapiens) (UniProt P20393) (assay: modulators of Rev-erb alpha DNA binding, dose response, biochemical, FITC-DNA, fluorescence polarization (AID 1259321)).
Nuclear receptor subfamily 1 group D member 1 (Homo sapiens), sequence (P20393 whole entry, looked up): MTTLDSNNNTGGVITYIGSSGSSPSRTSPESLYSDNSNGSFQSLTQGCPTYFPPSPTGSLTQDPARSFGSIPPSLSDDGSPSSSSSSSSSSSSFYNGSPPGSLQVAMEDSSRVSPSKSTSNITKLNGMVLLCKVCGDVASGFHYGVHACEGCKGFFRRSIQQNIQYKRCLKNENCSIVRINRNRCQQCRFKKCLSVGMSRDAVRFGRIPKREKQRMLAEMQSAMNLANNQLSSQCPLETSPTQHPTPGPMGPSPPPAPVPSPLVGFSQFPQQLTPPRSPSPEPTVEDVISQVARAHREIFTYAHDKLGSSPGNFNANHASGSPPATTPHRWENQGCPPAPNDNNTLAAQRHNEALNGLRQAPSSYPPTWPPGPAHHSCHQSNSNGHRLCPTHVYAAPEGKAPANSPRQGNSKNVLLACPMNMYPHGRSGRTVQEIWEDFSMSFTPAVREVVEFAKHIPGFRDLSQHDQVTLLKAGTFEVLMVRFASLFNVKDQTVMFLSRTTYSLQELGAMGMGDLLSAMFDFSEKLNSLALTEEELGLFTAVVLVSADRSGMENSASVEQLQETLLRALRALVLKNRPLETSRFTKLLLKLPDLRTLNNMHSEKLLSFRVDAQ
`COc1ccc(NC(=O)c2ccc(C(=O)c3cc(OC)ccc3OC)cc2)cc1` showed an IC50 of 1.67 µM.
For `COc1cc(-c2ccc3c(=O)c4ccccc4sc3c2)cc(OC)c1OC`, the IC50 was 2.86 µM.
`N#Cc1ccccc1Sc1ccccc1C(=O)OCC(=O)NC1CCCCC1` was tested, and the IC50 was “inactive”.
`CCc1ccc2n(-c3ccc(OC)cc3)c([S-])c(C(=O)Nc3cc(C)cc(C)c3)[n+]2c1` was tested, and the IC50 was 2.71 µM.
`COc1ccc(Cl)cc1CC1(C)C(=O)Nc2ccc(-c3ccccc3OC)cc21` (centres undefined) gave an IC50 of 3.44 µM.
For `O=C(COC(=O)c1sc2ccccc2c1Cl)Nc1ncc(Cl)cc1Cl`, the IC50 was > 40 µM (inactive).
In the case of `COc1ccc(C(=O)Cn2cnc3ccc(Cl)cc3c2=O)cc1F`, the IC50 is reported as 5 µM.
Work on `Cc1cc(-c2csc3nc[nH]c(=S)c23)cc(C)c1C` yielded an IC50 of 5.33 µM.
In the case of `COc1ccc(C(=O)Nc2nnc(Cc3cccs3)s2)cc1OC`, the IC50 is reported as “inactive”.
For `OCC[n+]1ccc(/C=C/c2c[nH]c3ccccc23)cc1`, the IC50 was > 40 µM (inactive).
`COc1cc(N2N=C(c3ccccc3)CC2c2ccccc2)c(C=O)cc1C=O` (centres undefined) showed an IC50 of 4.6 µM.
`O=C1c2cccc3c(O)ccc(c23)C(=O)N1Cc1ccccc1` was tested, and the IC50 was “inactive”.
`COC(=O)c1ccc(Cn2ccc3ccc(-c4ccc5ccn(C(=O)c6cccc(OC)c6)c5c4)cc32)cc1` was tested, and the IC50 was “inactive”.
For `COC(=O)c1ccc(Cn2ccc3ccc(-c4ccc5ccn(C(=O)C6CCCCC6)c5c4)cc32)cc1`, the IC50 was 6.33 µM.
`COc1ccc(Cn2ccc3ccc(-c4ccc5ccn(C(=O)c6cccc(OC)c6)c5c4)cc32)cc1` was tested, and the IC50 was > 40 µM (inactive).
In the case of `O=C(CCn1c(=O)c2cccn2c2cccnc21)NCc1cccc(Cl)c1`, the IC50 is reported as > 40 µM (inactive).
For `O=C(c1cc2cc(Cl)ccc2[nH]1)N1CCN(c2ccccn2)CC1`, the IC50 was > 40 µM (inactive).
For `Cc1sc2nc(SC(C)C)nc(N)c2c1C`, the IC50 was 3.72 µM.
In the case of `CCCCCCc1cc2cc(C(=O)Nc3ccccc3)c(=O)oc2cc1O`, the IC50 is reported as > 40 µM (inactive).
For `Cc1cc(C)cc(NC(=S)/C(=C(\[O-])c2ccc(Cl)cc2Cl)[n+]2ccc(C(C)(C)C)cc2)c1`, the IC50 was > 40 µM (inactive).
`NS(=O)(=O)c1ccc(CCNC(=O)c2cc(-c3ccccn3)nc3ccc(Br)cc23)cc1` gave an IC50 of 3.78 µM.
For `COc1ccc(/C=C2\SC(=O)N(CCC(=O)Nc3ccccc3)C2=O)cc1OC`, the IC50 was “inactive”.
`COc1ccc2cc(OCC(=O)NNC(=O)Nc3ccc(F)cc3)ccc2c1` was tested, and the IC50 was > 40 µM (inactive).
In the case of `O=c1ccc2c(-c3ccccc3)c3ccc(O)cc3oc-2c1`, the IC50 is reported as “inactive”.
In the case of `COc1ccc(CN(Cc2cc3cc(OC)c(OC)cc3[nH]c2=O)C(=O)NC2CCCCC2)cc1`, the IC50 is reported as 3.44 µM.
For `Clc1ccc(-c2ccnc(Oc3cc(Cl)ccc3Cl)n2)cc1`, the IC50 was > 40 µM (inactive).
`CCOC(=O)N1CCC(n2c(SCC(=O)c3ccccc3)nc3ccsc3c2=O)CC1` was tested, and the IC50 was 2.26 µM.
`Cc1nn(C)c(C)c1NC(=O)CSc1nc(-c2ccccc2Cl)nc2c1cnn2-c1ccccc1` showed an IC50 of 0.879 µM.
Work on `CCc1ccc(NC(=O)CSc2nc3ncc(Br)cc3[nH]2)cc1` yielded an IC50 of 1.53 µM.
In the case of `Cc1ccc2cc(-c3noc(C4CCCCC4)n3)c(=O)[nH]c2c1`, the IC50 is reported as “inactive”.
Work on `CCCCN1C(=O)/C(=C/C=C2\SCCN2C)SC1=S` yielded an IC50 of 3.18 µM.
`CCOC(=O)CSc1nc2cc3c(cc2cc1C#N)OCCO3` was tested, and the IC50 was > 40 µM (inactive).
In the case of `COc1ccccc1N=Nc1c(O)[nH]c(=S)[nH]c1=O`, the IC50 is reported as > 40 µM (inactive).
`CN1C(=O)c2cc(NC(=O)Nc3ccccc3)ccc2OC[C@H]2O[C@@H](CC(=O)NC3CCC3)CC[C@@H]21` was tested, and the IC50 was “inactive”.
In the case of `CC1(C)Cc2c(sc3c2c(N)nc(=S)n3Cc2ccc(Br)cc2)CO1`, the IC50 is reported as “inactive”.
`O=c1ccc(-c2ccc(S(=O)(=O)N3CCN(c4cccc(Cl)c4)CC3)o2)n[nH]1` was tested, and the IC50 was 1.9 µM.
In the case of `COc1cc(OC)cc(-c2c(C#Cc3ccsc3)c3cc(-c4ccc(SC)cc4)ccc3n2C)c1`, the IC50 is reported as 7.92 µM.
In the case of `COc1cc(C(=O)Nc2nc(-c3cc(C)ccc3C)c(C)s2)ccc1OCC(=O)Nc1ccc(F)cc1`, the IC50 is reported as “inactive”.
With `Cc1ccc(-c2nnc(NCc3nc4ccccc4[nH]3)c3ccccc23)cc1S(=O)(=O)N(C)C` the IC50 was “inactive”.
`Nc1ccc2cc3ccc(N)cc3nc2c1` was tested, and the IC50 was > 40 µM (inactive).
For `COc1ccc(C(=O)Nc2ccc(C(F)(F)F)n(C)c2=O)cc1`, the IC50 was > 40 µM (inactive).
For `COc1ccccc1N1N=C(C(=O)c2ccccc2)C2C(=O)N(c3ccc(Br)cc3)C(=O)C21` (centres undefined), the IC50 was 8.96 µM.
`CN1/C(=C\C=C2/C(=O)Oc3ccccc3C2=O)C(C)(C)c2ccccc21` was tested, and the IC50 was 4.74 µM.
With `COc1cccc(NC(=O)CSc2nc3ncc(Br)cc3[nH]2)c1` the IC50 was 1.3 µM.
`Brc1cc(Br)c2ncnc(N3CCCCC3)c2c1` gave an IC50 of 0.989 µM.
`CCOc1ccc(CC(=O)Nc2sc(Cc3ccccc3)cc2C(N)=O)cc1OCC` was tested, and the IC50 was > 40 µM (inactive).
`COc1ccc(-c2c(C#N)c(SCC(N)=O)nc3c2CCCC3)cc1` gave an IC50 of 3.93 µM.
With `O=C1NC(=O)c2c(Br)c(Br)c(Br)c(Br)c21` the IC50 was 1.48 µM.
`N#CCNC(=O)c1nn2c(C(F)(F)F)cc(-c3ccccc3)nc2c1Br` gave an IC50 of 3.58 µM.
`CC1(C)Cc2c(sc3c2c(N)nc(=S)n3Cc2ccccc2)CO1` was tested, and the IC50 was “inactive”.
For `O=C1c2cccc3c(N4CCCCC4)ccc(c23)C(=O)N1c1cccc(O)c1`, the IC50 was > 40 µM (inactive).
`CC(=O)Nc1ccc(N2C(=O)c3cccc4c(O)ccc(c34)C2=O)cc1` was tested, and the IC50 was 0.328 µM.
`O=C(CSc1ncnc2c1sc1ccccc12)Nc1ccc(Br)cc1` showed an IC50 of 2.97 µM.
For `C[n+]1ccc(/C=C/c2c[nH]c3ccccc23)cc1`, the IC50 was “inactive”.
Work on `CCn1cc(C2N3CC4(C)CN2CC(C)(C3)C4=O)c2ccccc21` (centres undefined) yielded an IC50 of 2.83 µM.
Compound `COc1ccc(C)cc1NC(=O)c1cc2c(=O)n3ccccc3nc2n1C` has an IC50 of 3.91 µM.
Compound `Cc1ccc2[nH]c(=O)c(CN(C(=O)c3cccs3)c3ccccc3)cc2c1` has an IC50 of 3.81 µM.
Work on `COc1ccccc1C(=O)Nc1nc2ccccc2s1` yielded an IC50 of 5.23 µM.
With `C=CCc1cccc(C2Nc3ccccc3C(=O)N2O)c1O` (centres undefined) the IC50 was 7.11 µM.
`O=[N+]([O-])c1ccc(-c2nc(-c3cccs3)c(-c3cccs3)[nH]2)cc1` was tested, and the IC50 was “inactive”.
With `COc1nc(-c2ccc(Cl)cc2)ccc1-c1noc(-c2cccs2)n1` the IC50 was “inactive”.
Compound `COc1cc(/C=C2\SC(=O)N(CCNC(=O)c3sc4cc(F)ccc4c3Cl)C2=O)cc(OC)c1OC` has an IC50 of 4.87 µM.
With `Cc1nc2ccc3nc(NC(=O)c4ccc5c(c4)OCCO5)sc3c2s1` the IC50 was 9.57 µM.
In the case of `COC(=O)c1cccc(Cn2ccc3ccc(-c4ccc5ccn(C(=O)c6ccccc6C)c5c4)cc32)c1`, the IC50 is reported as 2.94 µM.
With `CCC(c1ccc(O)cc1)C(CC)c1ccc(O)cc1` (centres undefined) the IC50 was “inactive”.
In the case of `CCN(CC(=O)NCc1ccc(Cl)cc1)C(=O)c1ccc2cc(OC)ccc2c1`, the IC50 is reported as 4.52 µM.
For `CCOC(=O)c1cccc2c(=O)c(C(=O)c3ccc(Cl)cc3)c(C(=O)OC)[nH]c12`, the IC50 was > 40 µM (inactive).
`O=C(O)CN1C(=O)/C(=C\c2cn(CC(=O)N3CCOCC3)c3ccccc23)SC1=S` gave an IC50 of 9.92 µM.
`CC1=Nc2ccccc2/C1=C/c1sc(=S)n(-c2cccc(C(=O)O)c2)c1O` was tested, and the IC50 was > 40 µM (inactive).
With `Cc1ccc(OCC(=O)Nc2ccc(O)c(-c3nc4ccccc4o3)c2)cc1` the IC50 was > 40 µM (inactive).
With `COc1cccc(CNC(=O)CCCn2c(=S)[nH]c3cc4c(cc3c2=O)OCO4)c1` the IC50 was 0.616 µM.
For `CCOc1cc2[nH]c(=S)n(CCC(=O)N3CCc4ccccc4C3)c(=O)c2cc1OCC`, the IC50 was “inactive”.
`O=C(COC(=O)c1ccccc1SCC(=O)NC1CCCCC1)NC1CCCCC1` showed an IC50 of 4.78 µM.
`COc1ccccc1NC(=O)COC(=O)c1ccc2c(c1)OCCO2` showed an IC50 of 1.01 µM.
In the case of `O=C(O)CSc1c2ccccc2cc2ccccc12`, the IC50 is reported as > 40 µM (inactive).
`O=C(CCCn1c(=S)[nH]c2cc3c(cc2c1=O)OCO3)NCc1cccc(Cl)c1` was tested, and the IC50 was > 40 µM (inactive).
`CCOc1ccc2nc(SCC(=O)N3c4ccccc4Sc4ccccc43)c(C#N)cc2c1` was tested, and the IC50 was 6.88 µM.
`COc1ccc(CNC(=O)C2CCC(CNS(=O)(=O)c3cccc4nsnc34)CC2)cc1` (centres undefined) showed an IC50 of 8.16 µM.
For `COc1ccc(NC(=O)COC(=O)c2ccc3c(c2)OCO3)c(OC)c1`, the IC50 was > 40 µM (inactive).
In the case of `Cc1nc(SCc2nc3ccccc3[nH]2)c2oc3cc(Br)ccc3c2n1`, the IC50 is reported as 9.38 µM.
`O=C(Nc1nnc(C2CCCCC2)s1)c1ccc(Br)s1` was tested, and the IC50 was “inactive”.
`CSc1nc(N)c(C#N)c(-c2ccc(Cl)cc2)c1C#N` was tested, and the IC50 was 4.85 µM.
For `O=C(CCCn1c(=S)[nH]c2cc3c(cc2c1=O)OCO3)NCc1ccccc1Cl`, the IC50 was “inactive”.
With `O=C(COc1ncnc2ccc(Br)cc12)NCc1ccc2c(c1)OCO2` the IC50 was 1.94 µM.
Compound `CCCCNc1ccc2c3c(cccc13)C(=O)N(CCCC)C2=O` has an IC50 of 2.78 µM.
`COc1ccccc1NC(=O)c1oc2ccccc2c1NC(=O)c1cc(OC)c(OC)c(OC)c1` was tested, and the IC50 was 4.77 µM.
In the case of `CN1C(=O)C(=Cc2ccc(N3CCCCC3)o2)C(=O)N(C)C1=S`, the IC50 is reported as “inactive”.
Work on `Cc1cc(Br)ccc1NC(=O)c1sc2ncn(CC(=O)N3CCN(c4ccccn4)CC3)c(=O)c2c1C` yielded an IC50 of 5.34 µM.
For `N#Cc1ccsc1NC(=O)COC(=O)c1cc(Br)ccc1O`, the IC50 was “inactive”.
For `COc1ccc2[nH]cc(/C=C/c3cc[n+](C)cc3)c2c1`, the IC50 was 5.25 µM.
Compound `c1ccc(-c2nc(SCc3nc4ccccc4[nH]3)c3oc4ccccc4c3n2)cc1` has an IC50 of 2.4 µM.
Compound `COC(=O)c1ccc2nc(Nc3nc4c(F)cc(F)cc4s3)sc2c1` has an IC50 of 2.14 µM.
`COC1C(CO)OC(n2c3c(Cl)cccc3c3c4c(c5c6cccc(Cl)c6[nH]c5c32)C(=O)NC4=O)C(O)C1O` (centres undefined) was tested, and the IC50 was “inactive”.
For `O=C(COc1nc2ccccc2nc1N1CCOCC1)N1CCc2ccccc21`, the IC50 was > 40 µM (inactive).
`O=C(Cc1sc(-c2ccccc2)nc1-c1ccccc1)Nc1ccc(Cl)cc1` showed an IC50 of 3.2 µM.
With `CCSC1=N/C(=C\C=C2/Oc3ccccc3N2CC)C(=O)S1` the IC50 was 9.41 µM.
With `COc1ccc2[nH]c(C(=O)Nc3ccccc3Cl)cc2c1` the IC50 was > 40 µM (inactive).
`Cc1ccccc1CNc1ncnc2cc(Cl)ccc12` showed an IC50 of 0.98 µM.
`COc1ccc(C(=O)NC(=S)Nc2ccc3[nH]c(=O)[nH]c3c2)c(OC)c1` was tested, and the IC50 was > 40 µM (inactive).
For `Cc1ccc(C)c2nc(SCC(=O)N3CCCc4ccccc43)c(C#N)cc12`, the IC50 was 6.12 µM.
For `COc1ccccc1-c1ccc2c(c1)C(C)(Cc1cccc(C#N)c1)C(=O)N2` (centres undefined), the IC50 was > 40 µM (inactive).
With `Cc1ccc(Sc2cnc3ccccc3n2)cc1` the IC50 was “inactive”.
For `Cc1ccc2cc(C#N)c(SCC(=O)NNC(=O)Cc3ccccc3)nc2c1`, the IC50 was 4.25 µM.
Compound `COc1ccc(-c2c(C#N)c(N)nc(Sc3ccc(Cl)cc3)c2C#N)cc1` has an IC50 of 3.66 µM.

— PubChem BioAssay AID1259321 (Sanford-Burnham Center for Chemical Genomics, 2017)
